Results as given in US8633245B2, “PAI-1 inhibitor” (Institute of Medicinal Molecular Design, Inc., priority 2008, dated 2014).

Molecular target: T1, recombinant human PAI-1 (Homo sapiens, UniProt P05121)
T1 construct: purchased Molecular Innovations, Inc
Test: Test Example 1: human PAI-1 inhibitory activity (tPA fluorogenic substrate, pH 7.5 Tris buffer)
Assay type: biochemical
Details: Tris buffer
Experimental: 50 mM Tris, 150 mM NaCl, 10 μg/ml BSA, 0.01% Tween80 (SIGMA-ALDRICH Corporation)

T1 sequence (P05121 24-402): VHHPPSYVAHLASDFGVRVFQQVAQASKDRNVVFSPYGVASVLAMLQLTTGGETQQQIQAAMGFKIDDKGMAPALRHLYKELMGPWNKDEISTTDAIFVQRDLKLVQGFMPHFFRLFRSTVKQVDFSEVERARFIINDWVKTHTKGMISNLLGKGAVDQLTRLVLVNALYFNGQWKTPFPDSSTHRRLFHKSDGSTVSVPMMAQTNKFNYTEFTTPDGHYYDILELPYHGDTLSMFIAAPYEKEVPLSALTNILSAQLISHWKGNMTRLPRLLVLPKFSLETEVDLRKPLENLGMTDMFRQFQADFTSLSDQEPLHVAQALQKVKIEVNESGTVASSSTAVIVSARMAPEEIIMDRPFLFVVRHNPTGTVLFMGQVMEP

SMILES: O=C(O)C(=O)N(Cc1ccc(Cl)cc1Cl)c1ccc(-c2ccc(OC(F)(F)F)cc2)cc1 [Compound 144]
- Inhibition Rate of PAI-1 Activity (%) (Compound Concentration 5 μM): 3%
- Inhibition Rate of PAI-1 Activity (%) (Compound Concentration 10 μM): 22%
- Inhibition Rate of PAI-1 Activity (%) (Compound Concentration 25 μM): 76%

SMILES: CC(C)(C)c1ccc(CN(C(=O)C(=O)O)c2ccc(-c3ccc(C(F)(F)F)cc3)cc2)cc1 [Compound 145]
- Inhibition Rate of PAI-1 Activity (%) (Compound Concentration 5 μM): 7%
- Inhibition Rate of PAI-1 Activity (%) (Compound Concentration 10 μM): 35%
- Inhibition Rate of PAI-1 Activity (%) (Compound Concentration 25 μM): 74%

SMILES: Cc1cc(-c2ccc(OC(F)(F)F)cc2)ccc1N(Cc1ccc(C(C)(C)C)cc1)C(=O)C(=O)O [Compound 146]
- Inhibition Rate of PAI-1 Activity (%) (Compound Concentration 5 μM): 33%
- Inhibition Rate of PAI-1 Activity (%) (Compound Concentration 10 μM): 73%
- Inhibition Rate of PAI-1 Activity (%) (Compound Concentration 25 μM): 90%

SMILES: CC(C)(C)c1ccc(CN(C(=O)C(=O)O)c2ccccc2-c2ccc(OC(F)(F)F)cc2)cc1 [Compound 148]
- Inhibition Rate of PAI-1 Activity (%) (Compound Concentration 5 μM): 17%
- Inhibition Rate of PAI-1 Activity (%) (Compound Concentration 10 μM): 55%
- Inhibition Rate of PAI-1 Activity (%) (Compound Concentration 25 μM): 98%

SMILES: CC(C)(C)c1ccc(CN(C(=O)C(=O)O)c2ccc(-c3ccc(C#N)cc3)cc2)cc1 [Compound 149]
- Inhibition Rate of PAI-1 Activity (%) (Compound Concentration 10 μM): 3%
- Inhibition Rate of PAI-1 Activity (%) (Compound Concentration 25 μM): 34%

SMILES: CC(C)(C)c1ccc(CN(C(=O)C(=O)O)c2ccc(-c3ccc(OC(F)(F)F)cc3)cc2C(F)(F)F)cc1 [Compound 150]
- Inhibition Rate of PAI-1 Activity (%) (Compound Concentration 5 μM): 33%
- Inhibition Rate of PAI-1 Activity (%) (Compound Concentration 10 μM): 75%
- Inhibition Rate of PAI-1 Activity (%) (Compound Concentration 25 μM): 87%

SMILES: CC(C)(C)c1ccc(CN(C(=O)C(=O)O)c2ccc(-c3ccc(OC(F)(F)F)cc3)cc2OC(F)(F)F)cc1 [Compound 151]
- Inhibition Rate of PAI-1 Activity (%) (Compound Concentration 5 μM): 35%
- Inhibition Rate of PAI-1 Activity (%) (Compound Concentration 10 μM): 80%
- Inhibition Rate of PAI-1 Activity (%) (Compound Concentration 25 μM): 90%

SMILES: Cc1cc(-c2ccc(OC(F)(F)F)cc2)cc(C)c1N(Cc1ccc(C(C)(C)C)cc1)C(=O)C(=O)O [Compound 152]
- Inhibition Rate of PAI-1 Activity (%) (Compound Concentration 5 μM): 41%
- Inhibition Rate of PAI-1 Activity (%) (Compound Concentration 10 μM): 88%
- Inhibition Rate of PAI-1 Activity (%) (Compound Concentration 25 μM): 93%

SMILES: CC(C)(C)c1ccc(CN(C(=O)C(=O)O)c2ccccc2Oc2ccc(OC(F)(F)F)cc2)cc1 [Compound 153]
- Inhibition Rate of PAI-1 Activity (%) (Compound Concentration 5 μM): 20%
- Inhibition Rate of PAI-1 Activity (%) (Compound Concentration 10 μM): 54%
- Inhibition Rate of PAI-1 Activity (%) (Compound Concentration 25 μM): 93%

SMILES: O=C(O)C(=O)N(Cc1ccccc1)c1ccc(Oc2ccc(OC(F)(F)F)cc2)cc1 [Compound 154]
- Inhibition Rate of PAI-1 Activity (%) (Compound Concentration 10 μM): 3%
- Inhibition Rate of PAI-1 Activity (%) (Compound Concentration 25 μM): 20%

SMILES: O=C(O)C(=O)N(Cc1ccc(F)cc1)c1ccc(-c2ccc(OC(F)(F)F)cc2)cc1 [Compound 155]
- Inhibition Rate of PAI-1 Activity (%) (Compound Concentration 5 μM): 7%
- Inhibition Rate of PAI-1 Activity (%) (Compound Concentration 10 μM): 15%
- Inhibition Rate of PAI-1 Activity (%) (Compound Concentration 25 μM): 38%

SMILES: CC(C)(C)c1ccc(-c2ccc(N(Cc3ccccc3)C(=O)C(=O)O)cc2)cc1 [Compound 156]
- Inhibition Rate of PAI-1 Activity (%) (Compound Concentration 5 μM): 10%
- Inhibition Rate of PAI-1 Activity (%) (Compound Concentration 10 μM): 25%
- Inhibition Rate of PAI-1 Activity (%) (Compound Concentration 25 μM): 67%

SMILES: CC(C)(C)c1ccc(N(C(=O)C(=O)O)c2ccccc2-c2ccc(OC(F)(F)F)cc2)cc1 [Compound 157]
- Inhibition Rate of PAI-1 Activity (%) (Compound Concentration 5 μM): 25%
- Inhibition Rate of PAI-1 Activity (%) (Compound Concentration 10 μM): 56%
- Inhibition Rate of PAI-1 Activity (%) (Compound Concentration 25 μM): 96%

SMILES: CC(C)(C)c1ccc(N(C(=O)C(=O)O)c2cccc(-c3ccc(OC(F)(F)F)cc3)c2)cc1 [Compound 158]
- Inhibition Rate of PAI-1 Activity (%) (Compound Concentration 5 μM): 26%
- Inhibition Rate of PAI-1 Activity (%) (Compound Concentration 10 μM): 61%
- Inhibition Rate of PAI-1 Activity (%) (Compound Concentration 25 μM): >99%

SMILES: O=C(O)C(=O)N(Cc1ccc(OC(F)(F)F)cc1)c1ccc(-c2ccc(OC(F)(F)F)cc2)cc1 [Compound 159]
- Inhibition Rate of PAI-1 Activity (%) (Compound Concentration 5 μM): 21%
- Inhibition Rate of PAI-1 Activity (%) (Compound Concentration 10 μM): 45%
- Inhibition Rate of PAI-1 Activity (%) (Compound Concentration 25 μM): 92%

SMILES: CSc1ccc(CN(C(=O)C(=O)O)c2ccc(-c3ccc(OC(F)(F)F)cc3)cc2)cc1 [Compound 160]
- Inhibition Rate of PAI-1 Activity (%) (Compound Concentration 5 μM): 14%
- Inhibition Rate of PAI-1 Activity (%) (Compound Concentration 10 μM): 26%
- Inhibition Rate of PAI-1 Activity (%) (Compound Concentration 25 μM): 68%

SMILES: O=C(O)C(=O)N(Cc1ccc(-c2ccccc2)cc1)c1ccc(-c2ccc(OC(F)(F)F)cc2)cc1 [Compound 161]
- Inhibition Rate of PAI-1 Activity (%) (Compound Concentration 5 μM): 27%
- Inhibition Rate of PAI-1 Activity (%) (Compound Concentration 10 μM): 62%
- Inhibition Rate of PAI-1 Activity (%) (Compound Concentration 25 μM): >99%

SMILES: CC(C)(C)c1ccc(-c2ccc(N(Cc3ccc(OC(F)(F)F)cc3)C(=O)C(=O)O)cc2)cc1 [Compound 162]
- Inhibition Rate of PAI-1 Activity (%) (Compound Concentration 5 μM): 30%
- Inhibition Rate of PAI-1 Activity (%) (Compound Concentration 10 μM): 74%
- Inhibition Rate of PAI-1 Activity (%) (Compound Concentration 25 μM): >99%

SMILES: CC(C)(C)c1ccc(CN(C(=O)C(=O)O)c2ccc(-c3ccc(C(C)(C)C)cc3)cc2)cc1 [Compound 163]
- Inhibition Rate of PAI-1 Activity (%) (Compound Concentration 5 μM): 37%
- Inhibition Rate of PAI-1 Activity (%) (Compound Concentration 10 μM): 84%
- Inhibition Rate of PAI-1 Activity (%) (Compound Concentration 25 μM): >99%

SMILES: CCCCc1ccc(-c2ccc(N(Cc3ccc(C(C)(C)C)cc3)C(=O)C(=O)O)cc2)cc1 [Compound 164]
- Inhibition Rate of PAI-1 Activity (%) (Compound Concentration 5 μM): 40%
- Inhibition Rate of PAI-1 Activity (%) (Compound Concentration 10 μM): 79%
- Inhibition Rate of PAI-1 Activity (%) (Compound Concentration 25 μM): 96%

SMILES: CC(C)(C)c1ccc(N(C(=O)C(=O)O)c2ccc(Oc3ccc(OC(F)(F)F)cc3)cc2)cc1 [Compound 165]
- Inhibition Rate of PAI-1 Activity (%) (Compound Concentration 5 μM): 27%
- Inhibition Rate of PAI-1 Activity (%) (Compound Concentration 10 μM): 64%
- Inhibition Rate of PAI-1 Activity (%) (Compound Concentration 25 μM): 96%

SMILES: CC(C)(C)c1ccc(CN(C(=O)C(=O)O)c2ccc(-c3ccc(OC(F)(F)F)cc3)c(C(F)(F)F)c2)cc1 [Compound 166]
- Inhibition Rate of PAI-1 Activity (%) (Compound Concentration 5 μM): 44%
- Inhibition Rate of PAI-1 Activity (%) (Compound Concentration 10 μM): 79%
- Inhibition Rate of PAI-1 Activity (%) (Compound Concentration 25 μM): 84%

SMILES: CCCCc1ccc(CN(C(=O)C(=O)O)c2ccc(-c3ccc(OC(F)(F)F)cc3)cc2)cc1 [Compound 167]
- Inhibition Rate of PAI-1 Activity (%) (Compound Concentration 5 μM): 37%
- Inhibition Rate of PAI-1 Activity (%) (Compound Concentration 10 μM): 75%
- Inhibition Rate of PAI-1 Activity (%) (Compound Concentration 25 μM): 87%
